Reference: patent US8486382B2, “Method for treating cervical cancer” (ZymoGenetics, Inc., priority 2001, dated 2013)

Test system: HeLa229
Assay: HeLa229 cytotoxicity assay (MTT readout)
Assay type: cell-based
Conditions: 72 hrs
Procedure: We tested IL-20 in a HeLa229 cytotoxicity assay to measure the ability of IL-20 to prevent cells from growing during normal growth conditions. We used MTT reagent (Promega, Madison, WI USA) as our detection and readout for this inhibition assay. Procedure of a cytotoxicity assay:
Day 1—Plate cells out in complete growth media (with serum) at 5000 cells/well in a 96 well format and let them incubate overnight at 37 degrees and 5% CO2.
Day 2—Dump off media and add a dose response of appropriate ligands in complete growth media (IL-20, zmda1, and MDA7 at 10, 100, and 1000 ng/ml.), along with a positive control retinoic acid (100 uM) in complete growth media, while leaving some wells in complete growth media as controls of how the cells normally grow under normal conditions. Put the cells in incubator and let the assay go for 72 hrs.
Day 5—Add 15 ul/well of MTT reagent, let cells inc. for 4 hrs., then add 100 ul of stop solution, let cells inc. for an additional 1 hr., then read the plate on a multilabel counter (Victor2, PerkinElmer Life Sciences Inc., Boston). The MTT protocol will give you two readings, one at a 650 wavelength (background) and one at a 572 wavelength. Subtract the 650 reading from the 572 reading to get your actual output. These numbers are averaged and converted to a % inhibition value.

CC1=C(/C=C/C(C)=C/C=C/C(C)=C/C(=O)O)C(C)(C)CCC1 [Retnoic Acid, retinoic acid]
inhibition at 100 µM (Homo sapiens, HeLa 229, HeLa229 cells, retinoic acid 100 uM (positive control), read-out: inhibition of growth): 53%

B1: IL-20: Interleukin-20 (formally called Zcyto10); human polypeptide of 176 amino acids, SEQ ID NO:2 (protein, listed as Homo sapiens)
chain: MKASSLAFSLLSAAFYLLWTPSTGLKTLNLGSCVIATNLQEIRNGFSDIRGSVQAKDGNIDIRILRRTESLQDTKPANRCCLLRHLLRLYLDRVFKNYQTPDHYTLRKISSLANSFLTIKKDLRLCHAHMTCHCGEEAMKKYSQILSHFEKLEPQAAVVKALGELDILLQWMEETE
maximal inhibition of growth (HeLa229 cells, IL-20 dose response 10, 100, and 1000 ng/ml): 20%
